Measurements taken from publication PMC6053404, “Enzymatic one-step ring contraction for quinolone biosynthesis” (Nature Communications, 2018).

Columns and labels:
[1] = molecular target: T1, AsqI (Aspergillus nidulans, UniProt C8VJQ3); assay: LC-MS initial rate of […]′-methoxyviridicatin […] formation; type: biochemical; settings: MES Na 100 mM, NaCl 100 mM, pH 5.5, 30 °C; substrate 0.05-0.8 mM, Km extrapolated above tested range
T1 construct: hexahistidine-tagged, recombinant from Escherichia coli; plasmid pKW18244; zinc-dependent

[2] = tested on: T2, PngL; assay: steady-state kinetics; type: biochemical, Penicillium sp. FKI-2140; settings: accurate parameters prevented by difficult purification; conditions in Supplementary Methods
T2 construct: hexahistidine-tagged, recombinant from Escherichia coli; difficult to purify

T1 sequence (C8VJQ3 whole entry): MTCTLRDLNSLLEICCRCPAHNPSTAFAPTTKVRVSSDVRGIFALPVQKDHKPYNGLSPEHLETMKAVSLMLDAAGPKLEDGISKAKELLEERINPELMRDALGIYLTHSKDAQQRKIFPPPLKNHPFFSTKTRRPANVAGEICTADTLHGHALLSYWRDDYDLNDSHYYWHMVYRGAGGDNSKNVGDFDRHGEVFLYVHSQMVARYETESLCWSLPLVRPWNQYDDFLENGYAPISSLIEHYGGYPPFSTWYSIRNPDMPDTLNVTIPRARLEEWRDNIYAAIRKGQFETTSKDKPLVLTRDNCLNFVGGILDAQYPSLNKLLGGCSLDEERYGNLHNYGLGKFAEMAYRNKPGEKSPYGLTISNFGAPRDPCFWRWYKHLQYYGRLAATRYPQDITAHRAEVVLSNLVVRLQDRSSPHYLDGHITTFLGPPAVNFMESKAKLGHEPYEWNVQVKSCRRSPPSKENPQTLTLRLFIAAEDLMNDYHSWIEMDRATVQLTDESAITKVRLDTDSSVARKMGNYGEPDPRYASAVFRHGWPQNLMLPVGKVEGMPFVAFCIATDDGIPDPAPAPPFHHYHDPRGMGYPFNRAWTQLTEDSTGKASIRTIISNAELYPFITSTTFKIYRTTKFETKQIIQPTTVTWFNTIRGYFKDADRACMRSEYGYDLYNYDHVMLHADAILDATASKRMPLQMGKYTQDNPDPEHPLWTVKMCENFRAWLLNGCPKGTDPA

## COc1ccc(C2OC23C(=O)Nc2ccccc2C(=O)N3C)cc1 (single isomer, unassigned; (-)) [compound 2, (–)-4′-methoxycyclopenin]
[1]
  Km: 2860 ± 520 µM
[2]
  Km: 350 ± 30 µM
